Reference: ChEMBL document CHEMBL3886288, “Thieno[3,2-D]pyrimidine derivatives having inhibitory activity for protein kinases” (2015)

Columns and labels:
[1] = molecular target: RAF proto-oncogene serine/threonine-protein kinase (Homo sapiens, UniProt P04049, Y340D/Y341D); assay: (§1) Kinase Activity: The compounds prepared in Examples were tested for inhibitory activity against three subtypes of RAF, i.e., RAF1 Y340D Y341D (C-RAF), B-RAF normal type and B-RAF^V600E using Kinase Profiling Service (Invitrogen, U.S.) according to the manufacturer's instructions. The levels of enzymatic inhibition of the compounds were calculated as percent inhibition at various concentrations.
Chain of RAF proto-oncogene serine/threonine-protein kinase (P04049 whole entry Y340D/Y341D): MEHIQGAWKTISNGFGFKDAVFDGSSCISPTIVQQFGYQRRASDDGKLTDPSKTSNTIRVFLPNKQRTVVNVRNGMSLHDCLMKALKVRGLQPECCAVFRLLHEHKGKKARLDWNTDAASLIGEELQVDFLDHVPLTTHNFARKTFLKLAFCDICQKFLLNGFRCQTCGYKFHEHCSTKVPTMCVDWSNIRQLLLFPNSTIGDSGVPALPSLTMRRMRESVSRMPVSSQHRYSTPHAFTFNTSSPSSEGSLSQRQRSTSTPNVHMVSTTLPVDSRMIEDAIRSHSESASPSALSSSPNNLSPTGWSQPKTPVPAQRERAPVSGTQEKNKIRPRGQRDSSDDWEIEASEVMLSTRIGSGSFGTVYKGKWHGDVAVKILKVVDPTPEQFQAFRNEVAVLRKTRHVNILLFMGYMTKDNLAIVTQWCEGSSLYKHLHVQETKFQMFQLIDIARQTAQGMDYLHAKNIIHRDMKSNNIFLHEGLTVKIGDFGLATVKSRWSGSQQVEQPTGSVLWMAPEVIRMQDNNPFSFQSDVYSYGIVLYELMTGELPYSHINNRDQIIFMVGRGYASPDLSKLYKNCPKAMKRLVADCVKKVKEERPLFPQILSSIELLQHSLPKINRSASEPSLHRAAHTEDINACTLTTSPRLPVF

[2] = molecular target: Serine/threonine-protein kinase B-raf (Homo sapiens, UniProt P15056); assay: as §1
Chain of Serine/threonine-protein kinase B-raf (Homo sapiens, UniProt P15056) (P15056 whole entry): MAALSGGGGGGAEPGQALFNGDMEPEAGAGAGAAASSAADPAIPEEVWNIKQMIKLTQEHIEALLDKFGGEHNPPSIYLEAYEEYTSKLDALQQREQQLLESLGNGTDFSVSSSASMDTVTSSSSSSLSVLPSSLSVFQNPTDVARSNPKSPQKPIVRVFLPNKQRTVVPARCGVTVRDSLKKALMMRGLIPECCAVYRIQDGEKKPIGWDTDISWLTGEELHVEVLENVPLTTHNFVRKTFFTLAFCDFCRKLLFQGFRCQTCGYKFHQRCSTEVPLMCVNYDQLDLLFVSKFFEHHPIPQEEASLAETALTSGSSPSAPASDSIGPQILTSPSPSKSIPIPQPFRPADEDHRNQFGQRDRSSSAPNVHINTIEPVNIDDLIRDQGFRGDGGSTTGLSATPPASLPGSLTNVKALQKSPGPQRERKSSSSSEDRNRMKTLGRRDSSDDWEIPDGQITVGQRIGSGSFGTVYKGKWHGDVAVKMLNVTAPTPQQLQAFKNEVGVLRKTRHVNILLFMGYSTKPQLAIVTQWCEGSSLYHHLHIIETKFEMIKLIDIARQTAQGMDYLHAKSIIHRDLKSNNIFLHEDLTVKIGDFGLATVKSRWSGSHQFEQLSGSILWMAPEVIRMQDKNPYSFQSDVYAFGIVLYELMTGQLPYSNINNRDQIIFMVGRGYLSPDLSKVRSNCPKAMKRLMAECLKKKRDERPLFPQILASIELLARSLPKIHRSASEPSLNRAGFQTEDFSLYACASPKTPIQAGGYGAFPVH

[3] = molecular target: Serine/threonine-protein kinase B-raf (Homo sapiens, UniProt P15056, V600E); assay: as §1
Chain of Serine/threonine-protein kinase B-raf (Homo sapiens, UniProt P15056, V600E) (P15056 2-766 V600E limits assumed): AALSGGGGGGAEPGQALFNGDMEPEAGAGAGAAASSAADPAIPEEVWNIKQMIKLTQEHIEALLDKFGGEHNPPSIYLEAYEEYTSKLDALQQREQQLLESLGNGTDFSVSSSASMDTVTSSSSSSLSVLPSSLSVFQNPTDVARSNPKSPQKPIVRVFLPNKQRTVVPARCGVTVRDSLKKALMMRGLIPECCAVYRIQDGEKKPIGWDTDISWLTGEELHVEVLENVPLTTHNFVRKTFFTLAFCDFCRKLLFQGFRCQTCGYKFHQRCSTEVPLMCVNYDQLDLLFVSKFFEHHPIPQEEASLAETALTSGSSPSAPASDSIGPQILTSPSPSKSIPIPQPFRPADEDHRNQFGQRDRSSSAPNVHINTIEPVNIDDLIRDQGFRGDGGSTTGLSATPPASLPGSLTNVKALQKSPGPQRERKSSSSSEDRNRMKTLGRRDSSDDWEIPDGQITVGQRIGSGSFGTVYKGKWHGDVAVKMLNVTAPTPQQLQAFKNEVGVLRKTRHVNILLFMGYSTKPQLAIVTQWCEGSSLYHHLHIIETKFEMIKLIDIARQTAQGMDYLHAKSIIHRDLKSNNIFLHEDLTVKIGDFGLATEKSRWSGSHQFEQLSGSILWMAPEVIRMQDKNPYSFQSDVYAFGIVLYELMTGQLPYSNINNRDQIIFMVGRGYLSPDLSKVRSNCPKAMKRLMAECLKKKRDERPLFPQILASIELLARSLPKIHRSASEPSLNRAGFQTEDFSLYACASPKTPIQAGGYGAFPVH

[4] = molecular target: Macrophage colony-stimulating factor 1 receptor (Homo sapiens, UniProt P07333); assay: Kinase Activity: The compounds prepared in Examples were tested for inhibitory activity against FMS, DDR1 and DDR2 kinases using Kinase Screening and Profiling Service (Invitrogen, U.S.).
Chain of Macrophage colony-stimulating factor 1 receptor (P07333 whole entry): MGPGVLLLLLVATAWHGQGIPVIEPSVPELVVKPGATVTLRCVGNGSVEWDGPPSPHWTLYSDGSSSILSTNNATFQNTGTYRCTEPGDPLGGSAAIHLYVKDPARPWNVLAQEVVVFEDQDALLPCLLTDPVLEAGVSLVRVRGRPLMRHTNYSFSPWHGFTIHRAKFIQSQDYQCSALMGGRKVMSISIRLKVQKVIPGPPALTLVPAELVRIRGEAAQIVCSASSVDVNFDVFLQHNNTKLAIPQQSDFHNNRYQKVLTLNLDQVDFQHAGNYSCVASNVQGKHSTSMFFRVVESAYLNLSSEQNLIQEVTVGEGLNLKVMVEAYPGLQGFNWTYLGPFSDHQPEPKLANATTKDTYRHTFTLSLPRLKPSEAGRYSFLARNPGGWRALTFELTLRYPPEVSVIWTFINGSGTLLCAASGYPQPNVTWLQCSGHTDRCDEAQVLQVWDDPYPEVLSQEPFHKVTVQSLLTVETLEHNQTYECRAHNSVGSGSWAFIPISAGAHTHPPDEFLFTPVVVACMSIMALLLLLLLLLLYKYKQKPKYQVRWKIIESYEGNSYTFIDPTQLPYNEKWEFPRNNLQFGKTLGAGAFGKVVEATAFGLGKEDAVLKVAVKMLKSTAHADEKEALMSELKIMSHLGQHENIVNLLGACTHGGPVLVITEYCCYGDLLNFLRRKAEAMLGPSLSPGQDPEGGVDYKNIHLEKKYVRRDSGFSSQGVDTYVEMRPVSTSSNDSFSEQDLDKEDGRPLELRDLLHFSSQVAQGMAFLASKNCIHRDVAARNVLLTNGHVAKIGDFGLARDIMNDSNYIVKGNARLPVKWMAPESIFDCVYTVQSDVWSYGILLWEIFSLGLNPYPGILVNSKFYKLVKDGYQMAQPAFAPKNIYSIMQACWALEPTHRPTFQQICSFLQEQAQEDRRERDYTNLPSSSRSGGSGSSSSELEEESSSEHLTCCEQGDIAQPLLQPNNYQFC

- IC50 [1]: 5 nM
- IC50 [2]: 66 nM
- IC50 [3]: 9 nM
- IC50 [4]: 57 nM
SMILES: Cc1ccc2c(Nc3cccc(Cl)c3)nccc2c1NC(=O)c1csc2c(N)ncnc12
